The results in this text go back to US11998610B2, “Conjugates and methods of using the same” (Flagship Pioneering Innovations V, Inc., priority 2018, dated 2024).

The test system of one assay is CT26.CL25 cells. Description: Cell viability readout (CellTiter-Glo) with bacteria-free media. The settings on record: 10 nM compound, CT26.CL25 cells, 72 h, CellTiter-Glo. The format is cell-based, mouse. The method, then:
Example 100: Cell-Based Assay of Bacterial Enzymes with Mammalian CT26.CL25 Mouse Colorectal Carcinoma Viability Readout
Bacteria-free media was incubated with the indicated test compound. ((R)—N1-(2-(methylamino)ethyl)-2-octanamidosuccinamide, a recognition element-linker conjugate lacking a payload, was serially diluted 1:1000 in DMSO and […] in medium+10% FBS to give a final concentration of 10 nM. Compound 35, Compound 76, Compound 77, Compound 78, Compound 79, and SN-38 were serially diluted 1:1000 in DMSO and 1:1000 in medium to give a final concentration of 10 nM, and then the bacteria-free supernatants were tested for their ability to kill mammalian cells. As an additional control, the test compound will also be incubated with bacteria-free media. The above steps can also be performed in the presence of E. coli (CFT073 ATCC 700928, Nissle 1917, or BL21 (DE3)) to effect cleavage of the conjugates of the application.
On Day 1, CT26.CL25 cells (15,000 cells/well) were seeded in triplicate into a 24 well plate and incubated overnight in 100 μL of complete medium. The reactions (bacteria or media blank) was pelleted by centrifugation, and then the supernatant was passed through a 0.2 μm sterile filter to remove residual bacteria.
On Day 2, 300 μL of a 10 nM solution of each compound in media were applied to separate wells of CT26.CL25 cells as prepared on Day 1. The cells were incubated at 37° C. for 72 h. After this point, viability was assessed using a CellTiter-Glo kit.
Binning of the compounds was achieved by measuring cell growth or arrest (e.g. remaining cells are >90% viable, >80% viable, >70% viable, >60% viable, >50% viable, >40% viable, >30% viable, >20% viable, or >10% viable).
Background: ATP-based viability assays read luminescence as a measure of living cells.

In another assay the test system is E. coli BL21(DE3). Description: Payload release in the presence of fecal matter, ClbP negative E. coli. The format is cell-based. The settings on record: 10 μM compound, anaerobic, 37° C., 20 h, LCMS. From the text: (§1) This example is representative of the methods described in Example 103. Fecal samples were subjected to metagenomic whole-genome shotgun sequencing followed by querying the dataset for the presence of the clbP gene or by attempting to amplify the gene with primers specific for it by qPCR. Samples that gave a signal below the detection limit were used in subsequent steps. The fecal sample was resuspended as a 15% (w/v) slurry in Anaerobic Phosphate Buffer Saline.
(§2) Following steps 1 and 2 as detailed in Example 98, E. coli CFT073 ATCC 700928, E. coli Nissle 1917, or E. coli BL21(DE3) were grown in liquid culture.
(§3) In an anaerobic chamber, the E. coli strains were added to the fecal samples obtained in step 1 at a dilution level calculated to represent 0, 1, 10, 50, 90, 99, or 100% of all organisms present in PRAS dilution blank on a 200 μL volume. The test compound (10 μM final concentration) was added to the mixture. The test compound was also added to a bacteria-free media control under similar conditions. The plate was sealed and incubated at 37° C. for 20 h. Under similar conditions, a standard curve of both the starting material and the payload compound was made in bacteria-free media.
(§4) After 20 h, an aliquot was tested for breakdown and release of a payload by LCMS by diluting serially to a final dilution of 1:100 first with Acetonitrile (10× dilution) and then with (1:1) Mobile Phase A-0.1% Formic Acid in Water:Mobile Phase B-0.1% Formic acid in Acetonitrile (1 OX dilution), with absolute quantification compared to the external standard curve. In an ideal case, the amount of payload released in the reaction(s) with ClbP-encoding E. coli was >75% of the theoretical maximum, and none was released in the E. coli BL21(DE3) and media-alone conditions. In an acceptable case, the amount of payload released in the reaction(s) with ClbP-encoding E. coli was 25-75% of the theoretical maximum, and <25% of the theoretical maximum was released in the E. coli BL21(DE3) and media-alone conditions. In a non-preferred case, the amount of payload released in the reactions(s) with ClbP-encoding E. coli was <25% of the theoretical maximum, and >25% of the theoretical maximum was released in the E. coli BL21(DE3) and media-alone conditions.

A further assay concerns E. coli Nissle 1917. Description: Payload release in the presence of fecal matter, ClbP positive E. coli. The format is cell-based. The following applies: 10 μM compound, anaerobic, 37° C., 20 h, LCMS.
Text: as §1, §2, §3, §4

For the molecule `CCCCCCNC(=O)N[C@H](CC(N)=O)C(=O)NCCN(C)C(=O)Oc1ccc2nc3c(c(CC)c2c1)Cn1c-3cc2c(c1=O)COC(=O)[C@]2(O)CC` [Example 77, (S)-4,11-diethyl-4-hydroxy-3,14-dioxo-3,4,12,14-tetrahydro-1H-pyrano[3′,4′:6,7]indolizino[1,2-b]quinolin-9-yl (2-((R)-4-amino-2-(3-hexylureido)-4-oxobutanamido)ethyl)(methyl)carbamate], in the assay with CT26.CL25 cells, the “Bacteria-free media (Luminescence, average of three runs)” value (shortened to “Bacteria-free media”) was determined as 345334. For the same molecule, in the assay with E. coli BL21(DE3), the “% payload released in ClbP negative (BL21 DE3) at 1:1 ratio of E. coli to fecal bacteria” value was 0%. In the assay with E. coli Nissle 1917, the “% payload released in ClbP positive (Nissle 1917) at 1:1 ratio of E. coli to fecal bacteria” value turned out to be 0%.
For `CCc1c2c(nc3ccc(OC(=O)N(C)CCNC(=O)[C@@H](CC(N)=O)NC(=O)CCCc4ccccc4)cc13)-c1cc3c(c(=O)n1C2)COC(=O)[C@]3(O)CC` [Example 78, (S)-4,11-diethyl-4-hydroxy-3,14-dioxo-3,4,12,14-tetrahydro-1H-pyrano[3′,4′:6,7]indolizino[1,2-b]quinolin-9-yl (2-((R)-4-amino-4-oxo-2-(4-phenylbutanamido)butanamido)ethyl)(methyl)carbamate], the “Bacteria-free media” value in the assay with CT26.CL25 cells came to 317645. In addition, the “% payload released in ClbP negative (BL21 DE3) at 1:1 ratio of E. coli to fecal bacteria” value in the assay on E. coli BL21(DE3) is given as 0%. The “% payload released in ClbP positive (Nissle 1917) at 1:1 ratio of E. coli to fecal bacteria” value in the assay on E. coli Nissle 1917 is 0%.
On to `CCCCCCCC(=O)N[C@H](CC(N)=O)C(=O)NCCN(C)C(=O)Oc1ccc2nc3c(c(CC)c2c1)Cn1c-3cc2c(c1=O)COC(=O)[C@]2(O)CC` [Example 76, (S)-4,11-diethyl-4-hydroxy-3,14-dioxo-3,4,12,14-tetrahydro-1H-pyrano[3′,4′:6,7]indolizino[1,2-b]quinolin-9-yl (2-((R)-4-amino-2-octanamido-4-oxobutanamido)ethyl)(methyl)carbamate], for which the “Bacteria-free media” value with CT26.CL25 cells turned out to be 282345. Moreover, the “% payload released in ClbP negative (BL21 DE3) at 1:1 ratio of E. coli to fecal bacteria” value in the assay with E. coli BL21(DE3) is 0%. In addition, the “% payload released in ClbP positive (Nissle 1917) at 1:1 ratio of E. coli to fecal bacteria” value in the assay with E. coli Nissle 1917 is recorded as 25%.
